One may read the pIC50 as −log10 of the IC50, conventionally taken in molar units. Lower therefore signals a large IC50.

pIC50: −log10 of the molar value.

Sequence of human DGAT2 (hDGAT2) (Q96PD7 whole entry): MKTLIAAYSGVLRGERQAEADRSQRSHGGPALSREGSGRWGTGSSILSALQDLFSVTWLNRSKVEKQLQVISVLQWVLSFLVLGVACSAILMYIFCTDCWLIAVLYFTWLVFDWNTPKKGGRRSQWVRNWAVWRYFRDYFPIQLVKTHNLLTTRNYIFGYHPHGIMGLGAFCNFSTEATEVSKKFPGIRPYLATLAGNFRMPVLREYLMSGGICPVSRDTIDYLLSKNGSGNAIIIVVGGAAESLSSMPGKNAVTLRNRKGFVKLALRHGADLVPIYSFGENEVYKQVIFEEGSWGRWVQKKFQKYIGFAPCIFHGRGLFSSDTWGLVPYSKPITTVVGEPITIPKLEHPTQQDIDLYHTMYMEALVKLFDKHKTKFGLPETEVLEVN

The assay has as its target human DGAT2 (hDGAT2) (Homo sapiens (Human), UniProt Q96PD7). Nature of the assay: DGAT2 Enzymatic Activity Assay. Type of assay: biochemical. To be noted: membrane prep of Sf-9 insect cells expressing hDGAT2; 13C18-triolein product by LC/MS/MS. As for the experimental part: Sf-9 insect cells were maintained in Grace's insect cell culture medium with 10% heated-inactivated fetal bovine serum, 1% Pluronic F-68 and 0.14 μg/ml Kanamycine sulfate at 27° C. in a shaker incubator. After infection with untagged baculovirus expressing human DGAT2 (hDGAT2) at multiplicity of infection (MOI) 3 for 48 hours, cells were harvested. Cell pellets were suspended in buffer containing 10 mM Tris-HCl pH 7.5, 1 mM EDTA, 250 mM sucrose and Complete Protease Inhibitor Cocktail (Sigma Aldrich), and sonicated on ice. Cell debris were removed by centrifugation at 2000×g for 15 minutes. Membrane fractions were isolated by ultracentrifugation (100,000×g), resuspended in the same buffer, and frozen (−80° C.) for later use. The protein concentration was determined with the Pierce™ BCA Protein Assay Kit (Thermo Fisher Scientific). Expression of protein levels was analyzed by immunoblotting with rabbit anti-DGAT2 antibody (Abcam, ab102831) and donkey anti-rabbit IgG H&L Alexa Fluor® 647 (Abcam, ab150075) followed by detection using Typhoon FLA9000 (GE Healthcare).
LC/MS/MS analyses were performed using Thermal Fisher's LX4-TSQ Vantage system. This system consists of an Agilent binary high-performance liquid chromatography (HPLC) pumps and a TSQ Vantage triple quadrupole MS/MS instrument. For each sample, 2 μL samples from the top organic layer of in-plate liquid-liquid extraction were injected onto a Thermo Betabasic C4 column (2.1 mm×20 mm, 5 μm particle size). The samples were then eluted using the following conditions; mobile phase: Isopropanol: acetonitrile/10 mM ammonium formate=50/35/15 (v/v/v), flow rate: 0.8 mL/min, temperature: 25° C. Data was acquired in positive mode using a heated electrospray ionization (HESI) interface. The operational parameters for the TSQ Vantage MS/MS instrument were a spray voltage of 3000 V, capillary temperature of 280° C., vaporizer temperature 400° C., sheath gas 45 arbitrary unit, Aux gas 10 arbitrary units, S-lens 165 and collision gas 1.0 mTorr. […] (SRM) chromatograms of ^13C18-triolein (Q1: 920.8>Q3:621.3) and internal standard ^13C21-triolein (Q1: 923.8>Q3:617.3) were collected for 33 sec. The peak area was integrated by Xcalibur Quan software. The ratio between the ^13C18 triolein generated in the reaction and spiked in internal standard ^13C21-triolein was used to generate percentage inhibition and IC50 values. Compound percentage inhibition was calculated by the following formula: Inhibition %=1−[(compound response−low control)/(high control−low control)]×100%. Potent compounds were titrated and IC50 were calculated by 4 parameter sigmoidal curve fitting formula.
DGAT2 activity was determined by measuring the amount of enzymatic product ^13C18-triolein (^13C-1,2,3-Tri(cis-9-octadecenoyl)glycerol) using the membrane prep mentioned above. The assay was carried out in ABgene 384-well assay plates in a final volume of 25 μL at rt. The assay mixture contained the following: assay buffer (100 mM Tris·Cl, pH 7.0, 20 mM MgCl2, 5% ethanol), 25 μM of diolein, 5 μM of ^13C oleoyl-CoA and 8 ng/μL of DGAT2 membrane.
The molecule `C[C@]1(NC(=O)c2cc3c(cn2)c(-c2cccc(OC(F)F)c2)nn3-c2ccc(F)cc2)CCS(=O)(=O)C1` [Example 5, (S)-3-(3-(difluoromethoxy)phenyl)-1-(4-fluorophenyl)-N-(3-methyl-1,1-dioxidotetrahydrothiophen-3-yl)-1H-pyrazolo[4,3-c]pyridine-6-carboxamide] had a negative logarithm of the IC50 (pIC50) of 7.96. The molecule `N[C@@H]1CCC[C@H]1NC(=O)c1cnc2c(-c3cccc(OC(F)F)c3)cn(-c3ncc(F)cn3)c2c1` [Example 21, N-((1R,2R)-2-aminocyclopentyl)-3-(3-(difluoromethoxy)phenyl)-1-(5-fluoropyrimidin-2-yl)-1H-pyrrolo[3,2-b]pyridine-6-carboxamide] gave a pIC50 of 5.19. In the case of `CC(C)n1nc(-c2cccc(OC(F)F)c2)c2ncc(C(=O)NC3(C(C)(C)O)CCOCC3)cc21` [Example 72, 3-(3-(difluoromethoxy)phenyl)-N-(4-(2-hydroxypropan-2-yl)tetrahydro-2H-pyran-4-yl)-1-isopropyl-1H-pyrazolo[4,3-b]pyridine-6-carboxamide] it was 6.20; in that of `CC(C)n1nc(-c2cc(OC(F)F)ncc2F)c2nnc(C(=O)NC3(C)CCS(=O)(=O)CC3)cc21` [Example 85, 3-(2-(difluoromethoxy)-5-fluoropyridin-4-yl)-1-isopropyl-N-(4-methyl-1,1-dioxidotetrahydro-2H-thiopyran-4-yl)-1H-pyrazolo[4,3-c]pyridazine-6-carboxamide], 6.84; in that of `CC1(NC(=O)c2cnc3c(-c4cccc(OC(F)F)c4)nn(C4COC4)c3c2)CS(=O)(=O)C1` [Example 61, 3-[3-(difluoromethoxy)phenyl]-N-(3-methyl-1,1-dioxo-thietan-3-yl)-1-(oxetan-3-yl)pyrazolo[4,3-b]pyridine-6-carboxamide], 7.19.

With `CC(C)n1nc(-c2cccc(OC(F)F)c2)c2ncc(C(=O)NC3(CO)CCC3)cc21` [Example 49, 3-(3-(difluoromethoxy)phenyl)-N-(1-(hydroxymethyl)cyclobutyl)-1-isopropyl-1H-pyrazolo[4,3-b]pyridine-6-carboxamide], the pIC50 was 8.21. In the case of `CC(C)n1nc(-c2cncc(C3CC3)c2)c2ncc(C(=O)NC3(C)CS(=O)(=O)C3)cc21` [Example 101, 3-(5-cyclopropyl-3-pyridyl)-1-isopropyl-N-(3-methyl-1,1-dioxo-thietan-3-yl)pyrazolo[4,3-b]pyridine-6-carboxamide] it was 7.07; in that of `Cc1nc2c(-c3nn(C(C)C)c4cc(C(=O)NC5(C)CS(=O)(=O)C5)cnc34)cccc2o1` [Example 123, 1-isopropyl-N-(3-methyl-1,1-dioxidothietan-3-yl)-3-(2-methylbenzo[d]oxazol-4-yl)-1H-pyrazolo[4,3-b]pyridine-6-carboxamide], 6.31. The molecule `CC(C)n1nc(-c2cc(OC(F)F)ccn2)c2ncc(C(=O)NC3(C)CS(=O)(=O)C3)cc21` [Example 98, 3-[4-(difluoromethoxy)-2-pyridyl]-1-isopropyl-N-(3-methyl-1,1-dioxo-thietan-3-yl)pyrazolo[4,3-b]pyridine-6-carboxamide] had a pIC50 of 6.16. In turn, `CC(C)NC(=O)c1cnc2c(-c3cccc(OC(F)F)c3)cn(-c3ncc(F)cn3)c2c1` [Example 16, 3-(3-(difluoromethoxy)phenyl)-1-(5-fluoropyrirnidin-2-yl)-N-isopropyl-1H-pyrrolo[3,2-b]pyridine-6-carboxamide] had a pIC50 of 6.68.

As for `CC(C)n1nc(-c2cccc(OC3CC3)c2)c2ncc(C(=O)NC3(C)CS(=O)(=O)C3)cc21` [Example 97, 3-[3-(cyclopropoxy)phenyl]-1-isopropyl-N-(3-methyl-1,1-dioxo-thietan-3-yl)pyrazolo[4,3-b]pyridine-6-carboxamide], the pIC50 is 9.05. Molecule `Cn1nccc1-c1cn(-c2ccc(F)cc2)c2cc(C(=O)N[C@@]3(C)CCS(=O)(=O)C3)cnc12` [Example 13, (S)-1-(4-fluorophenyl)-N-(3-methyl-1,1-dioxidotetrahydrothiophen-3-yl)-3-(1-methyl-1H-pyrazol-5-yl)-1H-pyrrolo[3,2-b]pyridine-6-carboxamide] showed a pIC50 of 7.05. On to `CC1(NC(=O)c2cnc3c(-c4cccc(OC(F)F)c4)nn(-c4ncc(F)cn4)c3c2)CS(=O)(=O)C1` [Example 4, 3-(3-(difluoromethoxy)phenyl)-1-(5-fluoropyrimidin-2-yl)-N-(3-methyl-1,1-dioxidothietan-3-yl)-1H-pyrazolo[4,3-b]pyridine-6-carboxamide], for which the pIC50 is 7.77. Next, `CC(C)n1nc(-c2cccc(OC(F)F)c2)c2ncc(C(=O)N[C@]3(C#N)CCOC3)cc21` [Example 38, N-[(3S)-3-cyanotetrahydrofuran-3-yl]-3-[3-(difluoromethoxy)phenyl]-1-isopropyl-pyrazolo[4,3-b]pyridine-6-carboxamide]: 7.96; `CC(C)n1nc(-c2cccc(OC(F)F)c2)c2ncc(C(=O)N[C@@]3(C)CCS(=O)(=O)C3)cc21` [Example 31, (S)-3-(3-(difluoromethoxy)phenyl)-1-isopropyl-N-(3-methyl-1,1-dioxidotetrahydrothiophen-3-yl)-1H-pyrazolo[4,3-b]pyridine-6-carboxamide]: 8.14.

Molecule `CC1(NC(=O)c2cnc3c(-c4cccc(OC(F)F)c4)nn(C4CC(F)(F)C4)c3c2)CS(=O)(=O)C1` [Example 86, 1-(3,3-difluorocyclobutyl)-3-(3-(difluoromethoxy)phenyl)-N-(3-methyl-1,1-dioxidothietan-3-yl)-1H-pyrazolo[4,3-b]pyridine-6-carboxamide] had a pIC50 of 7.62. In the case of `N[C@@H]1COC[C@H]1NC(=O)c1cnc2c(-c3cccc(OC(F)F)c3)cn(-c3ncc(F)cn3)c2c1` [Example 22, N-((3S,4S)-4-aminotetrahydrofuran-3-yl)-3-(3-(difluoromethoxy)phenyl)-1-(5-fluoropyrimidin-2-yl)-1H-pyrrolo[3,2-b]pyridine-6-carboxamide] it was 6.20; in that of `CC1(NC(=O)c2cnc3c(-c4cccc(OC(F)F)c4)nn(C4CC4)c3c2)CS(=O)(=O)C1` [Example 30, 1-cyclopropyl-3-(3-(difluoromethoxy)phenyl)-N-(3-methyl-1,1-dioxidothietan-3-yl)-1H-pyrazolo[4,3-b]pyridine-6-carboxamide], 7.00. In the case of `CC(C)n1nc(-c2cccc(OC(F)(F)F)c2)c2ncc(C(=O)NC3(C)CS(=O)(=O)C3)cc21` [Example 119, 1-isopropyl-N-(3-methyl-1,1-dioxidothietan-3-yl)-3-(3-(trifluoromethoxy)phenyl)-1H-pyrazolo[4,3-b]pyridine-6-carboxamide] it was 7.01.

Turning to `CCOc1cc(-c2nn(C(C)C)c3cc(C(=O)N[C@@]4(C)CCC[C@H]4O)cnc23)c(F)cn1` [Example 57, 3-(2-ethoxy-5-fluoropyridin-4-yl)-N-((1S,2R)-2-hydroxy-1-methylcyclopentyl)-1-isopropyl-1H-pyrazolo[4,3-b]pyridine-6-carboxamide], the pIC50 was 7.82. With `CC(C)Cn1nc(-c2cccc(OC(F)F)c2)c2ncc(C(=O)NC3(C)CS(=O)(=O)C3)cc21` [Example 28, 3-(3-(difluoromethoxy)phenyl)-1-isobutyl-N-(3-methyl-1,1-dioxidothietan-3-yl)-1H-pyrazolo[4,3-b]pyridine-6-carboxamide], the pIC50 is 7.54. For the molecule `CC(C)n1nc(-c2cccc(OC(F)F)c2)c2ncc(C(=O)NC(C)(C)C(C)(C)O)cc21` [Example 43, 3-(3-(difluoromethoxy)phenyl)-N-(3-hydroxy-2,3-dimethylbutan-2-yl)-1-isopropyl-1H-pyrazolo[4,3-b]pyridine-6-carboxamide], the pIC50 is 6.83. Next, `CC(C)n1nc(-c2cccc(OC(F)F)c2)c2ncc(C(=O)N[C@@H]3CCC[C@H]3N3CCOCC3)cc21` [Example 41, 3-[3-(difluoromethoxy)phenyl]-1-isopropyl-N-[(1R,2R)-2-morpholinocyclopentyl]pyrazolo[4,3-b]pyridine-6-carboxamide]: 7.14.

For the origin of these results see patent US20240059700A1, “NOVEL DIACYLGLYCERIDE O-ACYLTRANSFERASE 2 INHIBITORS” (Merck Sharp & Dohme LLC, priority 2020, published 2024).
